Values quoted from earlier work as cited in patent US20190105278A1, “SHELLAC MICROCAPSULE FORMULATIONS AND COMPOSITIONS” (CONARIS RESEARCH INSTITUTE AG, priority 2016, published 2019).

Conditions: EFSA; for acceptable daily intake (ADI): preparations with at least 90% purity

SMILES | upper systemic intake limit [mg/kg] | acceptable daily intake (ADI) [mg/kg body weight]
CC(=O)Nc1ccc(S(=O)(=O)[O-])c2cc(S(=O)(=O)[O-])c(N=Nc3ccc(N=Nc4ccc(S(=O)(=O)[O-])cc4)c4ccc(S(=O)(=O)[O-])cc34)c(O)c12.[Na+].[Na+].[Na+].[Na+] [brilliant black BN] | 5 | 5
O=C1/C(=C2\Nc3ccc(S(=O)(=O)[O-])cc3C2=O)Nc2ccc(S(=O)(=O)[O-])cc21.[Na+].[Na+] [indigo carmine] |  | 5
CCN(CC)c1ccc(C(=C2C=CC(=[N+](CC)CC)C=C2)c2cc(O)c(S(=O)(=O)[O-])cc2S(=O)(=O)[O-])cc1.CCN(CC)c1ccc(C(=C2C=CC(=[N+](CC)CC)C=C2)c2cc(O)c(S(=O)(=O)[O-])cc2S(=O)(=O)[O-])cc1.[Ca+2] [patent blue V] | 5 | 5
